Reference: ChEMBL document CHEMBL1201862, “PubChem BioAssay data set” (2004)
Calls of active or inactive are those of the source.

Key:
[1] = biological target: Heat shock protein HSP 90-alpha (Homo sapiens, UniProt P07900); format: functional, organism-based
[2] = C. albicans growth with fluconazole, confirmation, fluorescence, retest (AID 2467); format: functional, cell-based
[3] = biological target: T1, Serine/threonine-protein phosphatase (Candida dubliniensis (strain CD36 / CBS 7987 / NCPF 3949 / NRRLY-17841) (Yeast), UniProt B9W6M3); test: calcineurin pathway inhibitors in yeast reporter, dose response, S. cerevisiae, CDRE-lacZ, luminescence, secondary (AID 2388); format: functional, cell-based;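 further: yeast reporter cells carrying a calcineurin-responsive lacZ construct stimulated with calcium chloride; luminescent beta-galactosidase reporter signal in whole cells rather than isolated phosphatase activity; potency for inhibition where a drop in reporter signal means calcineurin blockade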
T1 sequence (B9W6M3 whole entry): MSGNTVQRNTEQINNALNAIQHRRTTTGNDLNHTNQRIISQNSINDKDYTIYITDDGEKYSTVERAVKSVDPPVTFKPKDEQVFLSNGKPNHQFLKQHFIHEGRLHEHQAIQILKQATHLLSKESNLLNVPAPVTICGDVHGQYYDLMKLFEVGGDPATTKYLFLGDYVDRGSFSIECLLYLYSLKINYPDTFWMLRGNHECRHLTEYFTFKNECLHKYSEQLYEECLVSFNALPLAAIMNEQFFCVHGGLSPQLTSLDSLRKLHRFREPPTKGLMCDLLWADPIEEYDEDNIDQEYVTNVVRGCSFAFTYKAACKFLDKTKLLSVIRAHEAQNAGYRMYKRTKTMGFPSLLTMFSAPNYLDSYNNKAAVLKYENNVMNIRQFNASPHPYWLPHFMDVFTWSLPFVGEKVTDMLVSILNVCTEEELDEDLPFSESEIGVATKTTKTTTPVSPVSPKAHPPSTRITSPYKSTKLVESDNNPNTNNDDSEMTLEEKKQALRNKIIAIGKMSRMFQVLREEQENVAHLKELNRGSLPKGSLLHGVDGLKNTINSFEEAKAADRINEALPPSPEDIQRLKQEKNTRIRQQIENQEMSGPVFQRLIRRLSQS

Beta-galactosidase = Beta-galactosidase (Escherichia coli, UniProt Q8VNN2); format: functional
Beta-galactosidase, sequence (Q8VNN2 whole entry): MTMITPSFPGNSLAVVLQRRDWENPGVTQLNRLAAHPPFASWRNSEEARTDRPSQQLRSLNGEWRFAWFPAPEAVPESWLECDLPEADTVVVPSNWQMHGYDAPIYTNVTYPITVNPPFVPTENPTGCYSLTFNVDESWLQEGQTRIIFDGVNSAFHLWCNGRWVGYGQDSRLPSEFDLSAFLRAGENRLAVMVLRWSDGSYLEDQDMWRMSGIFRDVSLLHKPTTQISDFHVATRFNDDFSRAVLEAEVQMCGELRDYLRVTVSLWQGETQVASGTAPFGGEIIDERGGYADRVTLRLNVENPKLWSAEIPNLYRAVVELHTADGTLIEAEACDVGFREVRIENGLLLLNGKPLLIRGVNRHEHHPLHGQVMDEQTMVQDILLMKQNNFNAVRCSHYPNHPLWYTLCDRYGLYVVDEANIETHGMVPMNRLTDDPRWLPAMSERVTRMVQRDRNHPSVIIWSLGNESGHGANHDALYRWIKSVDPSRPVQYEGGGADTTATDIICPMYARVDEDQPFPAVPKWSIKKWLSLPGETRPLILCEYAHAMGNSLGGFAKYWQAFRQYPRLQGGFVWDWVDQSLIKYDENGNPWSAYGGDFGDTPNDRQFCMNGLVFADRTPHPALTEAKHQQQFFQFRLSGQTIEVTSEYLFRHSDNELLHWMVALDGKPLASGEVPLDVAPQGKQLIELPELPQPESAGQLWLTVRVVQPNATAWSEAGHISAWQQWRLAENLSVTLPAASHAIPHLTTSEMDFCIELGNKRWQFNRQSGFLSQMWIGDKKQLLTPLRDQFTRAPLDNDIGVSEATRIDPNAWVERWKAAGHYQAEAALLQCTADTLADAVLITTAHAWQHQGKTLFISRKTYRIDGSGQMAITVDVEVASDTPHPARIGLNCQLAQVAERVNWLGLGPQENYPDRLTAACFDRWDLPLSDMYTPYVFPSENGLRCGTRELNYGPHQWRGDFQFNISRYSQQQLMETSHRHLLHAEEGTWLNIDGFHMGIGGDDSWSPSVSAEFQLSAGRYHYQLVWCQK

[4] = biological target: T2, Delta-type opioid receptor (Homo sapiens, UniProt P41143); test: HTS Image-Based Screen for Antagonists of the DOR Receptor. [Related pubchem assays (depositor defined):AID1777, AID1785, AID1786, AID2133]; format: functional
T2 sequence (P41143 whole entry): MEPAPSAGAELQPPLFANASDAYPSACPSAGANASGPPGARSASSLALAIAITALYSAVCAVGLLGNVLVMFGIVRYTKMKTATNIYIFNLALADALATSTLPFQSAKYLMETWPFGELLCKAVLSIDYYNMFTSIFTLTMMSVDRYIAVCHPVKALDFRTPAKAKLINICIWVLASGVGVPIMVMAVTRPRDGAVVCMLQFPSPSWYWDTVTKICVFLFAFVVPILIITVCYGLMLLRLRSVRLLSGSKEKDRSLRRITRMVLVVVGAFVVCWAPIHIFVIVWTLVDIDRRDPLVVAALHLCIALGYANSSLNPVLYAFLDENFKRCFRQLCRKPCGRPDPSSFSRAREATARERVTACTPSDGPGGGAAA

[5] = NIH-3T3 fibroblast cytotoxicity, dose response, cytotoxicity control, cell-based, fluorescence, Alamar Blue, secondary assay (AID 2327); format: functional;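 further: NIH-3T3 mouse fibroblasts cultured with fluconazole at 8 µg/mL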
[6] = test system: Streptococcus sp. 'group A'; test: growth inhibition of control SK(-) GAS strain, dose response, counter-screen for streptokinase expression inhibitor project, luminescence, kanamycin, BacTiterGlo, confirmation (AID 1900); format: functional, organism-based
Streptococcus = test: Group A Streptococcus viability loss, dose response, counter-screen for streptokinase expression inhibitor project, luminescence, BacTiterGlo (AID 1915); format: functional, organism-based;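 further: potency for reduction of bacterial viability or growth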
[7] = biological target: T2, Delta-type opioid receptor; test: HTS Image-Based Screen for Agonists of the DOR Receptor. [Related pubchem assays (depositor defined):AID1777, AID1786, AID2133]; format: functional
Mu-type opioid receptor = Mu-type opioid receptor (Homo sapiens, UniProt P35372); test: HTS Image-Based Screen for Agonists of the MOR Receptor. [Related pubchem assays (depositor defined):AID1777, AID1785, AID1786, AID2133]; format: functional;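 further: imaging of beta-arrestin GFP recruitment into spots after receptor activation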
[8] = biological target: ATP-dependent molecular chaperone HSP82 (Candida albicans (strain WO-1) (Yeast), UniProt C4YTQ8); test: loss of DOC-induced GRE-beta-galactosidase reporter signal, dose response, Hsp90 inhibitor project, S. cerevisiae, luminescence (AID 2400); format: functional, cell-based;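 further: beta-galactosidase luminescence from glucocorticoid response element reporter as proxy for Hsp90 function; inhibitor potency where signal loss means Hsp90 inhibition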
ATP-dependent molecular chaperone HSP82, sequence (C4YTQ8 whole entry): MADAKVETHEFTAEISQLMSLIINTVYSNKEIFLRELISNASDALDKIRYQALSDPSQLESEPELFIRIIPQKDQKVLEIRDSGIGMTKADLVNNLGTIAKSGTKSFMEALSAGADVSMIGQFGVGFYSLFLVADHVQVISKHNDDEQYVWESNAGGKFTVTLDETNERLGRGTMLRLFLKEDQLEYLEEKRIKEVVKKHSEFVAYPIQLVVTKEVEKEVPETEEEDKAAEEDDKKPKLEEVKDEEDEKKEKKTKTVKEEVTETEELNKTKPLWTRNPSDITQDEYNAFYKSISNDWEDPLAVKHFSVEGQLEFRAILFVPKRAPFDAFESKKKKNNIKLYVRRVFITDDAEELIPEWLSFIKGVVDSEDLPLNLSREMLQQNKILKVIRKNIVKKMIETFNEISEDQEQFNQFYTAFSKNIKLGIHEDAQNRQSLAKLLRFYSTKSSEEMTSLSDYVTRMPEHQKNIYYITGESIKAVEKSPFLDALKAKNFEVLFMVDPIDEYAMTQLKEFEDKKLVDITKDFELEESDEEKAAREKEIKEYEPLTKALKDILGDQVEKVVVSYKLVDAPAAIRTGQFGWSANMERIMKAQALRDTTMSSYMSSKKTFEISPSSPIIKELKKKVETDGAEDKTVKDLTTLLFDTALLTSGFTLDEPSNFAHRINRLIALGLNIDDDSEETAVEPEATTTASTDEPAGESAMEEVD

[9] = biological target: T3, Kappa-type opioid receptor (Homo sapiens, UniProt P41145); format: functional
T3 sequence (P41145 whole entry): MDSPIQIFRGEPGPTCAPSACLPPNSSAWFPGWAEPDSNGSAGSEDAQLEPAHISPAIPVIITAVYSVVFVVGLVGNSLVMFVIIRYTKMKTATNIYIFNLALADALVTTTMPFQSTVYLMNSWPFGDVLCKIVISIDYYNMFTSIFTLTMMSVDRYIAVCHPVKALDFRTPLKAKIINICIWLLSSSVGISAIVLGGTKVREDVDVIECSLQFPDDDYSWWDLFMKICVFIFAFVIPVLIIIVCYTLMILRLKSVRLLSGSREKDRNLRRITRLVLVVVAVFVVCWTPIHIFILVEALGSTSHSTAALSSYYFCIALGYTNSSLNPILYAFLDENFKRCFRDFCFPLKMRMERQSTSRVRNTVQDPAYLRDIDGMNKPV

HEK293 [10] = test: inhibitors of LMP1-driven NF-kB reporter, dose response, cell-based, HEK293, luciferase, cherry-pick (AID 588343); format: functional; conditions: Homo sapiens
[11] = biological target: T3, Kappa-type opioid receptor; format: functional; remark: listed apart in the source
[12] = biological target: T4, Mannose-6-phosphate isomerase (Homo sapiens, UniProt P34949); test: PMI enzyme inhibitors, confirmation, biochemical, fluorescence intensity (AID 1535)
T4 sequence (P34949 whole entry): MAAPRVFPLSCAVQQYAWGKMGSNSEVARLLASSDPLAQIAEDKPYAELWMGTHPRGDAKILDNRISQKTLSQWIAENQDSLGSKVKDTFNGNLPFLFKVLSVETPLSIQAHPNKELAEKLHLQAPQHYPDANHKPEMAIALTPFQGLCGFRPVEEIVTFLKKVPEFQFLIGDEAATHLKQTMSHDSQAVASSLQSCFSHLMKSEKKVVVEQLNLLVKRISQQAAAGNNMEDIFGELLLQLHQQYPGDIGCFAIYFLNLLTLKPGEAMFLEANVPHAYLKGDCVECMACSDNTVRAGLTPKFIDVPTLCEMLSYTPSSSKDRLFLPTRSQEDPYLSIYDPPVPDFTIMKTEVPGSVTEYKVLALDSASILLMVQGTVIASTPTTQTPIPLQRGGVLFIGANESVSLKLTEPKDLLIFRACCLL

Phosphomannomutase 2 = Phosphomannomutase 2 (Homo sapiens, UniProt O15305); test: Counter screen SAR assay for PMM2 inhibitors via a fluorescence intensity assay. [Related pubchem assays (depositor defined):AID1545, AID1574]
[13] = growth induction of Burl-1 ts yeast mutant, dose response, counter-screen for SUMOylation pathway inhibitor project, whole organism, S. cerevisiae, luminescence (AID 463199); format: functional
[14] = biological target: UDP-galactopyranose mutase (Mycobacterium tuberculosis, UniProt P9WIQ1); test: Inhibitors of Mycobacterium tuberculosis UDP-galactopyranose mutase (UGM) enzyme Measured in Biochemical System Using Plate Reader - 2105-02_Inhibitor_Dose_CherryPick_Activity. [Related pubchem assays (depositor defined):AID504439]
UDP-galactopyranose mutase, sequence (P9WIQ1 whole entry): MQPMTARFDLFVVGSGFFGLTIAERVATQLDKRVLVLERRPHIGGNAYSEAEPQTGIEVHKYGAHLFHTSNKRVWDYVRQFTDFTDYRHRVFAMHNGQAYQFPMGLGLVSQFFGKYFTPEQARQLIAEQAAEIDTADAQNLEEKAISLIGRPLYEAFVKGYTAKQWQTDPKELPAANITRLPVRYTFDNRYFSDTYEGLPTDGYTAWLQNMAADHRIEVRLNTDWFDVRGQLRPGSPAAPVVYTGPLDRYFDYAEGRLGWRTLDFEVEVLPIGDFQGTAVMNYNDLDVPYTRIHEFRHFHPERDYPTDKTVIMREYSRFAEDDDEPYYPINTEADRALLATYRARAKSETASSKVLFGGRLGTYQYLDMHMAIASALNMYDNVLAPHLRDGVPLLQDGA

ORF 73 = ORF 73 (Human herpesvirus 8, UniProt O40947); test: inhibitors of C-LANA binding to LBS DNA, dose response, biochemical, fluorescence polarization, cherry-picked samples (AID 504725); design: species or system Human gammaherpesvirus 8;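 further: fluorescence polarization of a labeled DNA duplex reporting LANA DNA binding; potency is for inhibitors that block LANA binding to the DNA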
ORF 73, sequence (O40947 whole entry): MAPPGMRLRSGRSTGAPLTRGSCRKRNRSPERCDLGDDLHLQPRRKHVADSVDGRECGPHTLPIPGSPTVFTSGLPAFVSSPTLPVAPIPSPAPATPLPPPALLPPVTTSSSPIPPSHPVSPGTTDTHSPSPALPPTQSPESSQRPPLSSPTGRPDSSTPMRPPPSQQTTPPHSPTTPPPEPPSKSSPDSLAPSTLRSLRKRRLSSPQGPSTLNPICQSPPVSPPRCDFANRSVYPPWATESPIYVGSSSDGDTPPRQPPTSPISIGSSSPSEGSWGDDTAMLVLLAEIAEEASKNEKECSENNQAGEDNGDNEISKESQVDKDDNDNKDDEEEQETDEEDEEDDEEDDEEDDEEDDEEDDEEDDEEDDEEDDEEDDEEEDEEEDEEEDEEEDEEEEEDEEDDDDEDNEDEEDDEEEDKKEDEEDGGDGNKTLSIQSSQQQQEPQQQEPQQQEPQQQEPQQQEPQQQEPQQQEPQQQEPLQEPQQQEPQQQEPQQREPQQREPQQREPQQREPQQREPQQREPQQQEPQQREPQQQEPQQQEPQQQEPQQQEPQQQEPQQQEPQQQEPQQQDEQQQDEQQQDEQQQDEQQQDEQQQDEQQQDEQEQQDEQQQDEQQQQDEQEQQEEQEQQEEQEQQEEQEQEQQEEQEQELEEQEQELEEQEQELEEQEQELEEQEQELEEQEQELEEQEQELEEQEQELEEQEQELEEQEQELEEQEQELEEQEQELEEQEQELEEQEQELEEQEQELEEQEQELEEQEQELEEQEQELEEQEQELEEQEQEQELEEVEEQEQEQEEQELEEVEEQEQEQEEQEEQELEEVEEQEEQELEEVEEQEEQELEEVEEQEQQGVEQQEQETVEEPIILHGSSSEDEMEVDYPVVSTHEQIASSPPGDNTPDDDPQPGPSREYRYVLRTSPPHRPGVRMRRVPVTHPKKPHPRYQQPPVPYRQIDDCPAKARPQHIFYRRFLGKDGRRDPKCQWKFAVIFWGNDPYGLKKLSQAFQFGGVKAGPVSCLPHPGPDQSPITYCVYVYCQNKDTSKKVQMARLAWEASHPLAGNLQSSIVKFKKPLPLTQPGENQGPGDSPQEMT

Insulin-degrading enzyme [15] = biological target: T5, Insulin-degrading enzyme (Homo sapiens, UniProt P14735); test: activators of endogenous IDE in HEK cells, dose response, cell-based, fluorescence polarization (AID 588439); format: functional
T5 sequence (P14735 whole entry): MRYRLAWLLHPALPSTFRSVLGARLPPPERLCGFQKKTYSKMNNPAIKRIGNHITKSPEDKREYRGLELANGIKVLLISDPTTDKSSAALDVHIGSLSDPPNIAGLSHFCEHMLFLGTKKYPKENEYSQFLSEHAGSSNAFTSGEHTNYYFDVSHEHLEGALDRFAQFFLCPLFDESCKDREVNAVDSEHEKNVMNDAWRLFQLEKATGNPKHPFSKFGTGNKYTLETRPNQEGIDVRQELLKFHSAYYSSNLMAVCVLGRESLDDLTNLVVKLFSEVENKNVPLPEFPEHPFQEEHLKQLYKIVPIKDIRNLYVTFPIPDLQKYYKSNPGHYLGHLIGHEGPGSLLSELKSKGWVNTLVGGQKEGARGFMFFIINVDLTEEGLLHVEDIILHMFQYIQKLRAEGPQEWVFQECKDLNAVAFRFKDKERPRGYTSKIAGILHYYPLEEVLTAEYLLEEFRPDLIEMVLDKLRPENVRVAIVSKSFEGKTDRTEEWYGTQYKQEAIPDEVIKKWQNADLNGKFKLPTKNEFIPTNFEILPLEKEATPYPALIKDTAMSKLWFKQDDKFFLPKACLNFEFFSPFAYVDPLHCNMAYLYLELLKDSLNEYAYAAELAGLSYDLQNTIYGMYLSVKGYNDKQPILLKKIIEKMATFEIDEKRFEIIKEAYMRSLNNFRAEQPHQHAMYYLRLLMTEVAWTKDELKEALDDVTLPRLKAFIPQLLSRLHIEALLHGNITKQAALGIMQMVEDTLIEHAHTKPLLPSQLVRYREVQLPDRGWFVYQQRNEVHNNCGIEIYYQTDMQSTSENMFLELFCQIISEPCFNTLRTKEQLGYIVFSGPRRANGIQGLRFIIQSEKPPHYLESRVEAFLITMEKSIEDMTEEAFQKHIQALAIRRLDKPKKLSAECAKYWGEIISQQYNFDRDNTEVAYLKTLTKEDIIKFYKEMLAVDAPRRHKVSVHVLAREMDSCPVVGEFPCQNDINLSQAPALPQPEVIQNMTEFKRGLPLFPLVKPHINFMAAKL

cells = conditions: A549
[16] = HepG2 cell cytotoxicity, dose response, cytotoxicity control, ATP luminescence, cherry-pick, set 6 (AID 1053125); format: functional, cell-based
Insulin-degrading enzyme [17] = biological target: T5, Insulin-degrading enzyme; test: activators of recombinant IDE enzyme, dose response, counter-screen for IDE activator project, biochemical, fluorescence polarization (AID 588681)
HEK293 [18] = test: HEK cell cytotoxicity by LDH release, dose response, cytotoxicity control for IDE activator project, fluorescence, HEK cells (AID 588440); format: functional, cell-based; conditions: Homo sapiens;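 further: cytotoxicity by LDH release measuring loss of membrane integrity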
[19] = CFTR ΔF508 corrector activity in bronchial cells, dose response, human bronchial epithelial cells, plate reader, cherry-pick, two tests (AID 743267); format: functional, cell-based
HEK293 [20] = test: optical interference in Abeta FP readout, dose response, artefact control for IDE activator project, biochemical, fluorescence polarization (AID 588442); format: functional, cell-based; conditions: Homo sapiens
Beta Lactamase = Beta Lactamase (Pseudomonas aeruginosa, UniProt Q932Y6);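 further: confirmatory high-throughput screen measuring VIM-2 metallo-beta-lactamase inhibition by epi-absorbance in dose response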
Beta Lactamase, sequence (Q932Y6 whole entry): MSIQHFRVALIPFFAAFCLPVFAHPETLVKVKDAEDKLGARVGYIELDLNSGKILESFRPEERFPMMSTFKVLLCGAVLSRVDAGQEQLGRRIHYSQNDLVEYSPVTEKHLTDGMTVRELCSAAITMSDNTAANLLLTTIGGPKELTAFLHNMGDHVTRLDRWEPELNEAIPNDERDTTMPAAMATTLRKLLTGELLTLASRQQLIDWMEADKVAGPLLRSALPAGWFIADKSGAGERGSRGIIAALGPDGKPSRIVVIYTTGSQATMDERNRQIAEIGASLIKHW

[21] = biological target: Potassium voltage-gated channel subfamily KQT member 2 (Rattus norvegicus, UniProt O88943); test: KCNQ2 potassium channel inhibitors, dose response, cell-based, automated electrophysiology, set II, rat KCNQ2 (AID 588637); format: functional
[22] = cytotoxicity in HMLE control line with eGFP shRNA, dose response, counter-screen for HMLE_sh_ECad selective toxicity project, cell-based, HMLE_sh_eGFP, luminescence (AID 463074); format: functional, Homo sapiens;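 further: HMLE human mammary epithelial cells expressing control shRNA against eGFP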
[23] = Luminescence Cell-Based Dose Retest to Confirm Inhibitors of Cancer Stem Cells. [Related pubchem assays (depositor defined):AID2717, AID2721]; format: functional; conditions: Homo sapiens
[24] = biological target: Nuclear receptor ROR-alpha (Homo sapiens, UniProt P35398); test: ROR modulator nuclear receptor reporter panel, late-stage follow-up, ROR modulator project, cell-based, luciferase reporter, panel member RORA (AID 2117)
[25] = biological target: Nuclear receptor ROR-gamma (Homo sapiens, UniProt P51449); test: ROR modulator nuclear receptor reporter panel, late-stage follow-up, ROR modulator project, cell-based, luciferase reporter, panel member RORG (AID 2117)
[26] = biological target: Intestinal-type alkaline phosphatase (Mus musculus, UniProt P24822); test: PubChem AID 488785; format: functional
Intestinal-type alkaline phosphatase (Mus musculus, UniProt P24822), sequence (P24822 whole entry): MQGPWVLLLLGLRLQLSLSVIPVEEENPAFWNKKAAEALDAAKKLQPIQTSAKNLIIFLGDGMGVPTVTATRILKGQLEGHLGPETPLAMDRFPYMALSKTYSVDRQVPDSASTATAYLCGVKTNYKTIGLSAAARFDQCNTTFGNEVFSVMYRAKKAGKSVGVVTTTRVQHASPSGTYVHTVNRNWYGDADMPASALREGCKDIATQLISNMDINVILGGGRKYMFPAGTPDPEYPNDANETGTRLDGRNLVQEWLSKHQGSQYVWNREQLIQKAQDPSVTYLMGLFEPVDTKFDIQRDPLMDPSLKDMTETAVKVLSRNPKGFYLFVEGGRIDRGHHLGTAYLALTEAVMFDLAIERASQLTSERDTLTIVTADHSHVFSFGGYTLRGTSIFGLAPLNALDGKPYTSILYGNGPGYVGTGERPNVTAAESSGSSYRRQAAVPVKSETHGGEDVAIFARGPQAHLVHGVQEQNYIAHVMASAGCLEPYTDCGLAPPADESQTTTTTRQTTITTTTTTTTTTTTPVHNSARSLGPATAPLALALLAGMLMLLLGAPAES

[27] = biological target: T6, Alkaline phosphatase, tissue-nonspecific isozyme (Homo sapiens, UniProt P05186); test: TNAP enzyme inhibition by screening hits, dose response, selectivity assay for mouse IAP inhibitor project, biochemical, human TNAP, uHTS hits (AID 488906); format: functional
T6 sequence (P05186 whole entry): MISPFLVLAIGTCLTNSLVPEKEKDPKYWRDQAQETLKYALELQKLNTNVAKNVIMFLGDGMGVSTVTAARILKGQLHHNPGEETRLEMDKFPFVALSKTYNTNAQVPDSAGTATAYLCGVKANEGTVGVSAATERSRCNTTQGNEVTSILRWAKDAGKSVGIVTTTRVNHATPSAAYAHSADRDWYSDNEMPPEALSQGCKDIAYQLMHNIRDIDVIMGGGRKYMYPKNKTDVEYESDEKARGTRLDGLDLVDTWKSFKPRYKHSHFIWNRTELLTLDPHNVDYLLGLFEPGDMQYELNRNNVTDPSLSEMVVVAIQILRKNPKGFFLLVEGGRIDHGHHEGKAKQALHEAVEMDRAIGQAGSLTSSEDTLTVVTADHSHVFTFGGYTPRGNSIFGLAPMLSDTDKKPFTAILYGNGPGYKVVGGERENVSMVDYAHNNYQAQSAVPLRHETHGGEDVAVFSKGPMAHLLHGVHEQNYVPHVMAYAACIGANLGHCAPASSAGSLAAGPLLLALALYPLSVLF

[28] = biological target: Intestinal-type alkaline phosphatase (Homo sapiens, UniProt P09923); test: inhibition of human intestinal alkaline phosphatase – biochemical, dose response (AID 488876); format: functional

In the case of `O=C(Nc1nnc(SCc2ccc(F)cc2)s1)c1ccccn1`, the AC50 [1] is reported as 3.56 µM (active), the EC50 [2] is reported as 1.42 µM (active) and the EC50 [3] is reported as > 180 µM (inactive). For the same compound, the EC50 (Beta-galactosidase) was > 31.5 µM (inactive), the IC50 [4] was > 32 µM (inactive) and the EC50 [5] was 74.7 µM (active). For the same compound, the EC50 [6] was 0.663 µM (active), the EC50 (Streptococcus) was 2.54 µM (active) and the EC50 [7] was > 32 µM (inactive). For the same compound, the EC50 (Mu-type opioid receptor) was > 32 µM (inactive), the EC50 [8] was 4.97 µM (active) and the IC50 [9] was 4.45 µM (active). For the same compound, the AC50 (HEK293 [10]) was 1.97 µM (active) and the IC50 [11] was greater than 32 µM.
With `Nc1ccccc1/N=c1\ssnc1Cl` the IC50 [12] was 9.43 µM (active) and the IC50 (Phosphomannomutase 2) was > 100 µM (inactive).
For `O=C(CSc1nnc(NC(=O)CN2CCOCC2)s1)Nc1ccccc1`, the AC50 [13] was 47.5 µM (active).
In the case of `Nc1ccc2ccc3cccc[n+]3c2c1.[O-][Cl+3]([O-])([O-])[O-]`, the AC50 [14] is reported as 3.88 µM (active), the AC50 (ORF 73) is reported as 1.3 µM (active) and the EC50 (Insulin-degrading enzyme [15]) is reported as > 54.7 µM (inactive). The AC50 (cells) was 27.3 µM (active), the AC50 [16] was > 52 µM (inactive) and the EC50 (Insulin-degrading enzyme [17]) was > 54.7 µM (inactive). For the same compound, the IC50 (HEK293 [18]) was > 89.2 µM (inactive), the AC50 [19] was 21.4 µM (active) and the EC50 (HEK293 [20]) was 6.89 µM (active). For the same compound, the IC50 (Beta Lactamase) was 9.33 µM (active).
With `COc1cccc(C(=O)NC(=S)Nc2ccccc2N2CCOCC2)c1` the IC50 [21] was 6.01 µM (active), the AC50 [22] was 33.5 µM (active) and the AC50 [23] was 20.1 µM (active).
With `COc1cccc(S(=O)(=O)Nc2ccc(C(O)(C(F)(F)F)C(F)(F)F)cc2)c1` the IC50 [24] was 2.31 µM (active) and the IC50 [25] was 7.23 µM (active).
For `COC(=O)C/C=N/NC1=NC(=O)/C(=C/C(=O)O)S1`, the IC50 [26] was 3.68 µM (active), the IC50 [27] was > 100 µM (inactive) and the IC50 [28] was 1.74 µM (active).
